ChEMBL document CHEMBL4765306, “Design, synthesis and biological evaluation of novel naturally-inspired multifunctional molecules for the management of Alzheimer's disease” (Eur J Med Chem, 2020)
Calls of active or inactive are those of the source. The rule behind the calls is not given here.

Experiments:
[1] = Antioxidant activity assessed as DPPH radical scavenging activity incubated for 25 mins in shaker; type: functional
[2] = biological target: Cholinesterase (Equus caballus) (UniProt P81908); experiment: Inhibition of […] equine serum BuChE at 20 uM using butyryl thiocholine iodide as substrate preincubated for 30 mins followed by substrate addition and measured after 30 mins by spectrophotometry based Ellman's method relative to control; type: cell-free; conditions: time 60.0 min
[3] = Antioxidant activity assessed as DPPH radical scavenging activity at 20 uM incubated for 25 mins in shaker relative to control; type: functional
Acetylcholinesterase [4] = biological target: T1, Acetylcholinesterase (Homo sapiens, UniProt P22303); experiment: Inhibition of recombinant human erythrocyte AChE using acetylthiocholine iodide as substrate preincubated for 30 mins followed by substrate addition and measured after 30 mins by spectrophotometry based Ellman's method
Mus musculus [5] = experiment: Ex vivo inhibition of AChE in brain of scopolamine-induced Swiss albino mouse model of amnesia at 12.5 to 25 mg/kg, po administered for 7 days and observed after 30 mins before scopolamine treatment and measured after 15 mins using acetylthiocholine iodide as substrate by Ellman's method; type: functional, organism-based; conditions: dose 12.5-25 mg/kg, time 7.0 day
Acetylcholinesterase [6] = biological target: T1, Acetylcholinesterase; experiment: Inhibition of AChE (unknown origin) at 20 uM relative to control
Homo sapiens = species on record: Homo sapiens; experiment: Disruption of human amyloid beta 1 to 42 assessed as effect on amyloid beta 1 to 42 morphology at 1.58 uM incubated for 10 days by atomic force microscopic analysis; conditions: time 10.0 day
[7] = biological target: Cholinesterase (Homo sapiens) (UniProt P06276); experiment: Inhibition of BuChE (unknown origin) at 20 uM relative to control
Mus musculus [8] = experiment: Memory enhancement effect in scopolamine-induced Swiss albino mouse model of amnesia assessed as increase in spontaneous alteration at 12.5 to 25 mg/kg, po administered for 7 days and observed after 30 mins before scopolamine treatment and measured after 15 mins by Y-maze test; type: functional, organism-based; conditions: dose 12.5-25 mg/kg, time 7.0 day
Acetylcholinesterase [9] = biological target: T1, Acetylcholinesterase; experiment: Inhibition of recombinant human erythrocyte AChE at 20 uM using acetylthiocholine iodide as substrate preincubated for 30 mins followed by substrate addition and measured after 30 mins by spectrophotometry based Ellman's method relative to control; conditions: time 60.0 min
Mus musculus [10] = experiment: Ex vivo inhibition of BChE in brain of scopolamine-induced Swiss albino mouse model of amnesia at 12.5 to 25 mg/kg, po administered for 7 days and observed after 30 mins before scopolamine treatment and measured after 15 mins using butyryl thiocholine iodide as substrate by Ellman's method; type: functional, organism-based; conditions: dose 12.5-25 mg/kg, time 7.0 day
Mus musculus [11] = experiment: Ex vivo antioxidant activity in brain of scopolamine-induced Swiss albino mouse model of amnesia assessed as increase in SOD level at 12.5 to 25 mg/kg, po administered for 7 days and observed after 30 mins before scopolamine treatment and measured after 15 mins; type: functional, organism-based; conditions: dose 12.5-25 mg/kg, time 7.0 day
Mus musculus [12] = experiment: Ex vivo antioxidant activity in brain of scopolamine-induced Swiss albino mouse model of amnesia assessed as decrease in MDA level at 12.5 to 25 mg/kg, po administered for 7 days and observed after 30 mins before scopolamine treatment and measured after 15 mins; type: functional, organism-based; conditions: dose 12.5-25 mg/kg, time 7.0 day
Mus musculus [13] = experiment: Memory enhancement effect in scopolamine-induced Swiss albino mouse model of amnesia assessed as effect on total arm entries at 12.5 to 25 mg/kg, po administered for 7 days and observed after 30 mins before scopolamine treatment and measured after 15 mins by Y-maze test; type: functional, organism-based; conditions: dose 12.5-25 mg/kg, time 7.0 day
Mus musculus [14] = experiment: Ex vivo antioxidant activity in brain of scopolamine-induced Swiss albino mouse model of amnesia assessed as increase in CAT level at 12.5 to 25 mg/kg, po administered for 7 days and observed after 30 mins before scopolamine treatment and measured after 15 mins; type: functional, organism-based; conditions: dose 12.5-25 mg/kg, time 7.0 day
Mus musculus [15] = experiment: Memory enhancement effect in scopolamine-induced Swiss albino mouse model of amnesia assessed as effect on total arm entries at 5 mg/kg, po administered for 7 days and observed after 30 mins before scopolamine treatment and measured after 15 mins by Y-maze test; type: functional, organism-based; conditions: time 7.0 day
Mus musculus [16] = experiment: Memory enhancement effect in scopolamine-induced Swiss albino mouse model of amnesia assessed as increase in spontaneous alteration at 5 mg/kg, po administered for 7 days and observed after 30 mins before scopolamine treatment and measured after 15 mins by Y-maze test; type: functional, organism-based; conditions: time 7.0 day
Cholinesterase = Cholinesterase (Equus caballus, UniProt P81908); experiment: Inhibition of […] equine serum BuChE using butyryl thiocholine iodide as substrate preincubated for 30 mins followed by substrate addition and measured after 30 mins by spectrophotometry based Ellman's method; type: cell-free
Mus musculus [17] = experiment: Memory enhancement effect in scopolamine-induced Swiss albino mouse model of amnesia assessed as effect on total arm entries at 6.25 to 25 mg/kg, po administered for 7 days and observed after 30 mins before scopolamine treatment and measured after 15 mins by Y-maze test; type: functional, organism-based; conditions: dose 6.25-25 mg/kg, time 7.0 day
[18] = Acute toxicity in Swiss albino mouse assessed as abnormal behaviour at 500 mg/kg, po administered once and observed for 14 days; type: organism-based; conditions: in vivo, 336 h, time 14 day
[19] = Acute toxicity in Swiss albino mouse assessed as organism death at 500 mg/kg, po administered once and observed for 14 days; type: organism-based; conditions: in vivo, 336 h, time 14 day
Mus musculus [20] = experiment: Ex vivo inhibition of AChE in brain of scopolamine-induced Swiss albino mouse model of amnesia at 6.25 to 25 mg/kg, po administered for 7 days and observed after 30 mins before scopolamine treatment and measured after 15 mins using acetylthiocholine iodide as substrate by Ellman's method; type: functional, organism-based; conditions: dose 6.25-25 mg/kg, time 7.0 day
Mus musculus [21] = experiment: Memory enhancement effect in scopolamine-induced Swiss albino mouse model of amnesia assessed as increase in spontaneous alteration at 6.25 to 25 mg/kg, po administered for 7 days and observed after 30 mins before scopolamine treatment and measured after 15 mins by Y-maze test; type: functional, organism-based; conditions: dose 6.25-25 mg/kg, time 7.0 day
Mus musculus [22] = experiment: Ex vivo antioxidant activity in brain of scopolamine-induced Swiss albino mouse model of amnesia assessed as increase in CAT level at 6.25 to 25 mg/kg, po administered for 7 days and observed after 30 mins before scopolamine treatment and measured after 15 mins; type: functional, organism-based; conditions: dose 6.25-25 mg/kg, time 7.0 day
[23] = Acute toxicity in Swiss albino mouse assessed as effect on food consumption at 500 mg/kg, po administered once and observed for 14 days; type: organism-based; conditions: in vivo, 336 h, time 14 day
[24] = Acute toxicity in Swiss albino mouse assessed as liver damage at 500 mg/kg, po administered once and observed after 14 days by microscopic analysis; type: organism-based; conditions: in vivo, 336 h, time 14 day
[25] = Acute toxicity in Swiss albino mouse assessed as effect on water consumption at 500 mg/kg, po administered once and observed for 14 days; type: organism-based; conditions: in vivo, 336 h, time 14 day
Acetylcholinesterase [26] = biological target: T1, Acetylcholinesterase; experiment: Non-competitive inhibition of recombinant human erythrocyte AChE at 1 to 10 uM using acetylthiocholine iodide as substrate preincubated for 30 mins followed by substrate addition and measured after 30 mins by Lineweaver-burk plot analysis; conditions: dose 1-10 µM, time 60.0 min
Mus musculus [27] = experiment: Ex vivo inhibition of BChE in brain of scopolamine-induced Swiss albino mouse model of amnesia at 6.25 to 25 mg/kg, po administered for 7 days and observed after 30 mins before scopolamine treatment and measured after 15 mins using butyryl thiocholine iodide as substrate by Ellman's method; type: functional, organism-based; conditions: dose 6.25-25 mg/kg, time 7.0 day
Mus musculus [28] = experiment: Ex vivo antioxidant activity in brain of scopolamine-induced Swiss albino mouse model of amnesia assessed as decrease in MDA level at 6.25 to 25 mg/kg, po administered for 7 days and observed after 30 mins before scopolamine treatment and measured after 15 mins; type: functional, organism-based; conditions: dose 6.25-25 mg/kg, time 7.0 day
[29] = biological target: Cholinesterase (Equus caballus) (UniProt P81908); experiment: Mixed-type inhibition of […] equine serum BuChE at 7.5 to 30 uM using butyryl thiocholine iodide as substrate preincubated for 30 mins followed by substrate addition and measured after 30 mins by Lineweaver-burk plot analysis; type: cell-free; conditions: dose 7.5-30 µM, time 60.0 min
Mus musculus [30] = experiment: Ex vivo antioxidant activity in brain of scopolamine-induced Swiss albino mouse model of amnesia assessed as increase in SOD level at 6.25 to 25 mg/kg, po administered for 7 days and observed after 30 mins before scopolamine treatment and measured after 15 mins; type: functional, organism-based; conditions: dose 6.25-25 mg/kg, time 7.0 day
[31] = Cytotoxicity against human SH-SY5Y cells assessed as reduction in cell viability at 20 uM incubated for 24 hrs by MTT assay; type: cell-based; conditions: read-out: INH
[32] = Metal chelating activity assessed as Fe3+-compound complex formation at 300 uM measured for 30 mins by UV-Visible spectrophotometric method
[33] = Acute toxicity in Swiss albino mouse assessed as effect on body weight at 500 mg/kg, po administered once and observed for 14 days; type: organism-based; conditions: in vivo, 336 h, time 14 day
[34] = Metal chelating activity assessed as Fe3+-compound complex formation at 300 uM measured for 30 mins by MS-MS analysis

Chain of Cholinesterase (Equus caballus) (P81908 whole entry): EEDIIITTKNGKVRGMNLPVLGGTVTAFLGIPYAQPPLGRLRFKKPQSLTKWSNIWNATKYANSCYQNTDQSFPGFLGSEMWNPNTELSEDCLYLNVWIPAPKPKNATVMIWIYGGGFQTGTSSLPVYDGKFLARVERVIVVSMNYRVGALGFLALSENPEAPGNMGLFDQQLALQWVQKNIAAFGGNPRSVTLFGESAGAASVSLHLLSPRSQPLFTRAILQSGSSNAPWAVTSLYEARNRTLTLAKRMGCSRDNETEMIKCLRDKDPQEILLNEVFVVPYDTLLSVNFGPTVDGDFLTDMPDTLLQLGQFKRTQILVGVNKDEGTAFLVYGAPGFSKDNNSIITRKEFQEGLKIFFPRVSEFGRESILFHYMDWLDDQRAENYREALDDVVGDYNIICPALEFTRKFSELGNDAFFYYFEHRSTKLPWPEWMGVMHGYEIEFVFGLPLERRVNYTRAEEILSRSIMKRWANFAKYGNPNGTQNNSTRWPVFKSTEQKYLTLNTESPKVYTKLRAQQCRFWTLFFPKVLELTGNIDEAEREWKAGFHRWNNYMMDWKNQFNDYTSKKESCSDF
Chain of Cholinesterase (P81908 whole entry): as above
T1 sequence (P22303 whole entry): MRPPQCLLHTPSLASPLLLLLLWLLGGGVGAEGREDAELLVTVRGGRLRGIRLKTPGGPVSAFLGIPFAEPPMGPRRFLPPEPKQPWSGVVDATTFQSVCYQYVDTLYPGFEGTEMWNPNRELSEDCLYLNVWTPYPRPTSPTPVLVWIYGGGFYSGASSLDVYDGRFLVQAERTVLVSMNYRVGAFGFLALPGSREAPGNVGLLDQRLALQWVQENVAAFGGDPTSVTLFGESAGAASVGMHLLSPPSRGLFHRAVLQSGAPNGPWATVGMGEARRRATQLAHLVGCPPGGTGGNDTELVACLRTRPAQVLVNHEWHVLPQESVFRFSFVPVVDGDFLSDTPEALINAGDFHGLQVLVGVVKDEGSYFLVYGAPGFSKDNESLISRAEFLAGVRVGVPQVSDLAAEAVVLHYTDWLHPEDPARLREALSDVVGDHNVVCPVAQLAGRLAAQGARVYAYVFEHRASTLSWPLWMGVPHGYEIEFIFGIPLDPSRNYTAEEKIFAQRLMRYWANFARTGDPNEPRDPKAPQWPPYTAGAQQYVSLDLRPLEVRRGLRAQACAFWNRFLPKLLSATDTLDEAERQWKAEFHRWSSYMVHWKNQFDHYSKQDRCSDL
Chain of Cholinesterase (Homo sapiens) (P06276 whole entry): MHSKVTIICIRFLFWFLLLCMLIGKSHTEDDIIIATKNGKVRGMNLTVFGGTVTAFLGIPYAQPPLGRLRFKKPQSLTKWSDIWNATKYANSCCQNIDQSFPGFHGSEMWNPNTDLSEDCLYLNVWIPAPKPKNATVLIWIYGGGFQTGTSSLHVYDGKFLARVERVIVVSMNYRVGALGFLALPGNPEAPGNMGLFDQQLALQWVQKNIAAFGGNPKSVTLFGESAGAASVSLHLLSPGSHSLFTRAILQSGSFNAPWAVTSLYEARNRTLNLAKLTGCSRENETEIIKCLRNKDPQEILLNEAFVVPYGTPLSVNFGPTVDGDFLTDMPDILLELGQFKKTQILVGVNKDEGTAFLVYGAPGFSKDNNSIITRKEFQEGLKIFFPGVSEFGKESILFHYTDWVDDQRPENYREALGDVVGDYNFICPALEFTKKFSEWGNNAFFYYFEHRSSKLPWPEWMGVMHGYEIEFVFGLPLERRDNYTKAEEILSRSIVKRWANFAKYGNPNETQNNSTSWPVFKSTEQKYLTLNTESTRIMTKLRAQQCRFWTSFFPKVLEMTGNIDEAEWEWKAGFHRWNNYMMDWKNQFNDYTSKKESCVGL

SMILES: COc1cc(/C=C/C(=O)NCC(=O)Nc2cccc(Cl)c2)ccc1O
- IC50 [1]: 108 µM
- inhibition [2]: 48.5%
- Activity [3]: 12.7%
- IC50 (Acetylcholinesterase [4]): 5.68 µM

SMILES: COc1cc(/C=C/C(=O)NCC(=O)Nc2ccc(C)cc2)ccc1O
- inhibition [2]: 35.6%
- IC50 (Acetylcholinesterase [4]): 12.6 µM

SMILES: COc1cc(/C=C/C(=O)O)ccc1O [FERULATE]
- Activity (Mus musculus [5]): inactive
- inhibition (Acetylcholinesterase [6]): < 20%
- Activity (Homo sapiens): Active
- inhibition [7]: < 20%
- Activity (Mus musculus [8]): inactive
- IC50 [1]: 56.5 µM
- inhibition (Acetylcholinesterase [9]): < 10%
- Activity (Mus musculus [10]): inactive
- inhibition [2]: 19.7%
- Activity [3]: 28.6%
- Activity (Mus musculus [11]): Active
- Activity (Mus musculus [12]): Active
- Activity (Mus musculus [13]): inactive
- Activity (Mus musculus [14]): Active

SMILES: COc1cc2c(cc1OC)C(=O)C(CC1CCN(Cc3ccccc3)CC1)C2 (stereo not given)
- Activity (Homo sapiens): inactive
- Activity (Mus musculus [15]): Active
- Activity (Mus musculus [16]): Active

SMILES: COc1cc(/C=C/C(=O)NCC(=O)Nc2ccccc2)ccc1O
- inhibition [2]: 38.2%
- IC50 (Acetylcholinesterase [4]): 21.9 µM

SMILES: COc1cc(/C=C/C(=O)N2CCN(c3ccccc3)CC2)ccc1O
- inhibition [2]: 37%
- IC50 (Acetylcholinesterase [4]): 29.3 µM

SMILES: COc1cc(/C=C/C(=O)NCC(=O)Nc2ccc(Cl)cc2)ccc1O
- IC50 [1]: 101 µM
- inhibition [2]: 46.9%
- Activity [3]: 16.7%
- IC50 (Acetylcholinesterase [4]): 3.43 µM

SMILES: COc1cc(/C=C/C(=O)NCC(=O)Nc2ccc3ncccc3c2)ccc1O
- IC50 [1]: 77.6 µM
- inhibition [2]: 57.7%
- Activity [3]: 18.6%
- IC50 (Cholinesterase): 14.3 µM
- IC50 (Acetylcholinesterase [4]): 4.89 µM

SMILES: COc1cc(/C=C/C(=O)NCC(=O)Nc2cccc(C)c2)ccc1O
- inhibition [2]: 36.1%
- IC50 (Acetylcholinesterase [4]): 18.9 µM

SMILES: COc1cc(/C=C/C(=O)NCC(=O)Nc2cccc(Br)c2)ccc1O
- inhibition [2]: 36.6%
- IC50 (Acetylcholinesterase [4]): 13.1 µM

SMILES: COc1ccc(NC(=O)CNC(=O)/C=C/c2ccc(O)c(OC)c2)cc1
- IC50 [1]: 91.2 µM
- inhibition [2]: 49.9%
- Activity [3]: 23.6%
- IC50 (Cholinesterase): 19.5 µM
- IC50 (Acetylcholinesterase [4]): 17.3 µM

SMILES: COc1cc(/C=C/C(=O)NCC(=O)Nc2ccc(F)cc2)ccc1O
- inhibition [2]: 42.2%
- IC50 (Acetylcholinesterase [4]): 12.9 µM

SMILES: COc1cc(/C=C/C(=O)N2CCN(c3ccc(C)cc3)CC2)ccc1O
- inhibition [2]: 38.1%
- IC50 (Acetylcholinesterase [4]): 19.5 µM

SMILES: COc1cc(/C=C/C(=O)NCC(=O)Nc2ccc3[nH]ccc3c2)ccc1O
- Activity (Mus musculus [17]): Active
- Activity (Homo sapiens): Active
- Activity [18]: Non-Toxic
- IC50 [1]: 57.4 µM
- Activity [19]: Non-Toxic
- Activity (Mus musculus [20]): Active
- Activity (Mus musculus [21]): Active
- Activity (Mus musculus [22]): Active
- Activity [23]: Non-Toxic
- Activity [24]: Non-Toxic
- Activity [25]: Non-Toxic
- inhibition (Acetylcholinesterase [26]): Active
- Activity (Mus musculus [27]): Active
- Activity (Mus musculus [28]): Active
- inhibition [2]: 58.7%
- Activity [3]: 31.3%
- inhibition [29]: Active
- Activity (Mus musculus [30]): Active
- IC50 (Cholinesterase): 14 µM
- cytotoxicity at 24 h, 20 µM [31]: 4.39%
- Activity [32]: Active
- IC50 (Acetylcholinesterase [4]): 5.74 µM
- Activity [33]: Non-Toxic
- Activity [34]: Active

SMILES: COc1cc(/C=C/C(=O)NCC(=O)Nc2cccc(F)c2)ccc1O
- inhibition [2]: 38.3%
- IC50 (Acetylcholinesterase [4]): 22.1 µM
